Values quoted from earlier work, collected in patent US20260210975A1, “DIAGNOSIS AND TREATMENT OF LONG-COVID” (priority 2022, published 2026).
Like-named read-outs stand apart in the source and are kept apart here.

Molecular target: KCNH2 (Homo sapiens, UniProt Q12809)
Sequence (Q12809 whole entry): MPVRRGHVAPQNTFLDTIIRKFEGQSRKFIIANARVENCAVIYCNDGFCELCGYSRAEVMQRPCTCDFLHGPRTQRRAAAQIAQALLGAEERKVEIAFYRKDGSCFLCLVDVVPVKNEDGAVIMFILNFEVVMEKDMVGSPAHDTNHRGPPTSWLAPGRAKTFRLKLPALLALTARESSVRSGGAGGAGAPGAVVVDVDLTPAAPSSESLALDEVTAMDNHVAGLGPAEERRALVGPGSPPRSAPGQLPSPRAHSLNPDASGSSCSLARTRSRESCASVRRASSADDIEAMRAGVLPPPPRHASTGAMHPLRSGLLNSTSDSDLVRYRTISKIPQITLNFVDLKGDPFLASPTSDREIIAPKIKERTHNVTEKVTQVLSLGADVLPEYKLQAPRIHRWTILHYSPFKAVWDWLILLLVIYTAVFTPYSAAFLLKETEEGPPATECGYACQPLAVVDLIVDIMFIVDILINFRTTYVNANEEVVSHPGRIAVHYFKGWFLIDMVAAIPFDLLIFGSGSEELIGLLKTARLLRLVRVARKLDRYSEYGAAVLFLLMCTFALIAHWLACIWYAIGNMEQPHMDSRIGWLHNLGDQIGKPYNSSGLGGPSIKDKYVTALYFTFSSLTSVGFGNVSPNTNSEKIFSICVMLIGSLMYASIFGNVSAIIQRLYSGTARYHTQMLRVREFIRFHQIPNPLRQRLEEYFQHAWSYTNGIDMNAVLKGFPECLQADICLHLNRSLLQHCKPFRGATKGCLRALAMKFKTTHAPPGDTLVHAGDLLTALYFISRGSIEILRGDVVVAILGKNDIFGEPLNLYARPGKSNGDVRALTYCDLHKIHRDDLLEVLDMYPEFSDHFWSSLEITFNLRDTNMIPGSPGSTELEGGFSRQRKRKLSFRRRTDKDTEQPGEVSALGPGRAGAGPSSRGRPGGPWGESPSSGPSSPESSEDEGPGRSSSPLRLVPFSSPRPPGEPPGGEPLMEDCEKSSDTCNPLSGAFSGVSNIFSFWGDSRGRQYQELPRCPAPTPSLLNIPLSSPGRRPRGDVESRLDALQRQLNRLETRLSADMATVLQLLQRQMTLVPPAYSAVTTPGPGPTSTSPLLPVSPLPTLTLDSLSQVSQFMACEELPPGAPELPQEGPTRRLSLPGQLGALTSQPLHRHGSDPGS

Row | Compound | IC50 [µM] | other results
1 | prenylamine |  | IC50 (read-out: IC50 (half maximal inhibitory concentration), KCNH2 inhibitors, literature values): ~0.59 µM
2 | C[C@@H]1CN(c2c(F)c(N)c3c(=O)c(C(=O)O)cn(C4CC4)c3c2F)C[C@H](C)N1 [sparfloxacin] | ~18 | 
3 | arsenic trioxide |  | IKr (listed as weak inhibitor of KCNH2, literature value): approximately 300 μmol/l
4 | Cc1cc2c(s1)Nc1ccccc1N=C2N1CCN(C)CC1 [olanzapine] | ~6.01 | 
5 | COc1ccc(CN(CCN(C)C)c2ccccn2)cc1 [pyrilamine] | ~6 | 
